Experimental data taken from the supplement of paper PMC10307832.

Legend:
Experiment in all cases: relative viability (nuclei count vs DMSO), 5 days (fraction); higher = more cells survive
Entinostat + Alpelisib = compound: Nc1ccccc1NC(=O)c1ccc(CNC(=O)OCc2cccnc2)cc1 [Entinostat] + Cc1nc(NC(=O)N2CCC[C@H]2C(N)=O)sc1-c1ccnc(C(C)(C)C(F)(F)F)c1 [Alpelisib] (partner 2 µM)
Outline: (§1)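 For relative viability, nuclei counts in treated wells were divided by those in vehicle wells. Lung cancer cell lines had been pin-tool dosed in 1536-well plates the day after seeding and cultured for 5 days, then fixed and stained in one step (final 0.05% Triton X-100, 1% formaldehyde, 1 ug/ml Hoechst) and imaged at 4×. Doses were one drug alone or a fixed anchor-drug dose plus five library-drug doses (not always all listed) in √10 steps, and values are duplicate-plate medians.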

Entinostat + OSI-027 = compound: Nc1ccccc1NC(=O)c1ccc(CNC(=O)OCc2cccnc2)cc1 [Entinostat] + COc1cccc2cc(-c3nc([C@H]4CC[C@H](C(=O)O)CC4)n4ncnc(N)c34)[nH]c12 [OSI-027] (partner 0.5 µM)
Outline: as §1

Entinostat + Crizotinib = compound: Nc1ccccc1NC(=O)c1ccc(CNC(=O)OCc2cccnc2)cc1 [Entinostat] + C[C@@H](Oc1cc(-c2cnn(C3CCNCC3)c2)cnc1N)c1c(Cl)ccc(F)c1Cl [Crizotinib] (partner 1 µM)
Outline: as §1

Entinostat + Foretinib = compound: Nc1ccccc1NC(=O)c1ccc(CNC(=O)OCc2cccnc2)cc1 [Entinostat] + COc1cc2c(Oc3ccc(NC(=O)C4(C(=O)Nc5ccc(F)cc5)CC4)cc3F)ccnc2cc1OCCCN1CCOCC1 [Foretinib] (partner 0.25 µM)
Outline: as §1

| Cell Line | relative viability (Entinostat + Alpelisib; first compound 0.02 µM) | relative viability (Entinostat + Alpelisib; first compound 0.06325 µM) | relative viability (Entinostat + Alpelisib; first compound 0.2 µM) | relative viability (Entinostat + Alpelisib; first compound 0.6325 µM) | relative viability (Entinostat + Alpelisib; first compound 2 µM) | relative viability (Entinostat + OSI-027; first compound 0.02 µM) | relative viability (Entinostat + OSI-027; first compound 0.06325 µM) | relative viability (Entinostat + OSI-027; first compound 0.2 µM) | relative viability (Entinostat + OSI-027; first compound 0.6325 µM) | relative viability (Entinostat + OSI-027; first compound 2 µM) | relative viability (Entinostat + Crizotinib; first compound 0.02 µM) | relative viability (Entinostat + Crizotinib; first compound 0.06325 µM) | relative viability (Entinostat + Crizotinib; first compound 0.2 µM) | relative viability (Entinostat + Crizotinib; first compound 0.6325 µM) | relative viability (Entinostat + Crizotinib; first compound 2 µM) | relative viability (Entinostat + Foretinib; first compound 0.02 µM) | relative viability (Entinostat + Foretinib; first compound 0.06325 µM) | relative viability (Entinostat + Foretinib; first compound 0.2 µM) | relative viability (Entinostat + Foretinib; first compound 0.6325 µM) | relative viability (Entinostat + Foretinib; first compound 2 µM) |
| --- | --- | --- | --- | --- | --- | --- | --- | --- | --- | --- | --- | --- | --- | --- | --- | --- | --- | --- | --- | --- |
| NCI-H647 | 1.09 | 1.28 | 1.06 | 0.419 | 0.11 | 0.677 | 0.537 | 0.562 | 0.302 | 0.179 | 1.1 | 0.966 | 0.749 | 0.301 | 0.102 | 1.23 | 1.12 | 0.826 | 0.465 | 0.23 |
| NCI-H650 | 1.18 | 1.13 | 1.03 | 0.763 | 0.339 | 0.614 | 0.614 | 0.586 | 0.489 | 0.261 | 0.673 | 0.564 | 0.586 | 0.473 | 0.222 | 1.16 | 0.933 | 1.04 | 0.839 | 0.477 |
| NCI-H661 | 0.733 | 0.735 | 0.68 | 0.856 | 0.683 | 0.688 | 0.757 | 0.724 | 0.54 | 0.629 | 0.907 | 0.909 | 1.01 | 0.834 | 0.633 | 0.929 | 0.963 | 0.923 | 0.697 | 0.575 |
| NCI-H727 | 0.708 | 0.669 | 0.545 | 0.264 | 0.297 | 0.679 | 0.808 | 0.5 | 0.493 | 0.398 | 0.765 | 0.731 | 0.693 | 0.628 | 0.342 | 0.753 | 0.782 | 0.794 | 0.679 | 0.521 |
| NCI-H838 | 1.03 | 1.15 | 1.13 | 0.72 | 0.301 | 0.46 | 0.489 | 0.474 | 0.487 | 0.318 | 0.995 | 0.818 | 0.949 | 0.536 | 0.229 | 1.05 | 1.23 | 1.12 | 0.746 | 0.321 |
| NCI-H1355 | 0.83 | 0.806 | 0.641 | 0.514 | 0.426 | 0.476 | 0.434 | 0.397 | 0.27 | 0.252 | 1.06 | 1.01 | 0.9 | 0.743 | 0.599 | 0.903 | 0.91 | 0.751 | 0.695 | 0.571 |
| NCI-H1437 | 0.822 | 0.594 | 0.388 | 0.167 | 0.138 | 0.786 | 0.581 | 0.306 | 0.218 | 0.203 | 0.801 | 0.641 | 0.469 | 0.174 | 0.109 | 0.992 | 0.804 | 0.456 | 0.352 | 0.261 |
| NCI-H1563 | 0.908 | 0.883 | 0.826 | 0.807 | 0.636 | 0.723 | 0.687 | 0.707 | 0.653 | 0.547 | 0.781 | 0.907 | 0.759 | 0.711 | 0.735 | 0.543 | 0.918 | 0.823 | 0.77 | 0.609 |
